Source: patent US11013726B2 (Arbutus Biopharma Corporation, priority 2016, dated 2021)

The compounds below were run on HBsAg (assay: HBsAg assay). Details: Hepatitis B virus, HepG2.2.15, 144 h, read-out: sAg EC50, μM, HepG2.2.15 cells, day 6.
Format: cell-based, hepatitis B virus
Protocol: Inhibition of HBsAg was determined in HepG2.2.15 cells. Cells were maintained in culture medium containing 10% fetal calf serum, […], Glutamine, penicillin/streptomycin. Cells were seeded in 96-well collagen-coated plate at a density of 30,000 cells/well. Serially diluted compounds were added to cells next day at the final DMSO concentration of 0.5%. Cells were incubated with compounds for 2-3 days, after which medium was removed. Fresh medium containing compounds was added to cells for additional 3-4 days. At day 6 after exposure of compounds, supernatant was collected, the HBsAg immunoassay (microplate-based chemiluminescence immunoassay kits, CLIA, Autobio Diagnosics Co., Zhengzhou, China, Catalog # CL0310-2) was used to determine the level of HBsAg according to manufactory instruction. Dose-response curves were generated and the EC50 value (effective concentrations that achieved 50% inhibitory effect) were determined using XLfit software. In addition, cells were seeded at a density of 5,000 cells/well for determination of cell viability in the presence and absence of compounds by using CellTiter-Glo reagent (Promega). Tables 1-3 show EC50 values obtained by the HBsAg assay for selected compounds.

First: CCOCCOc1cc2c(cc1C)-c1cc(=O)c(C(=O)O)cn1[C@H](C(C)C)CO2 [Example 55, (R)-3-(2-Ethoxyethoxy)-7-isopropyl-2-methyl-11-oxo-6,7-dihydro-11H-benzo[f]pyrido[1,2-d][1,4]oxazepine-10-carboxylic acid]
Second: CCOCCOc1cc2c(cc1CC)-c1cc(=O)c(C(=O)O)cn1[C@H](C(C)C)CO2 [Example 57, (R)-3-(2-Ethoxyethoxy)-2-ethyl-7-isopropyl-11-oxo-6,7-dihydro-111H-benzo[f]pyrido[1,2-d][1,4]oxazepine-10-carboxylic acid]
The EC50 of the first is 3.8-fold higher: 0.13 µM for the first, 0.034 µM for the second.

First: CCc1cc2c(cc1OCCCO)OC[C@@H](C(C)C)n1cc(C(=O)O)c(=O)cc1-2 [Example 56, (R)-2-Ethyl-3-(3-hydroxypropoxy)-7-isopropyl-11-oxo-6,7-dihydro-111H-benzo[f]pyrido[1,2-d][1,4]oxazepine-10-carboxylic acid]
Second: Cc1cc2c(cc1OCCCO)OC[C@@H](C(C)C)n1cc(C(=O)O)c(=O)cc1-2 [Example 60, (R)-3-(3-Hydroxypropoxy)-7-isopropyl-2-methyl-11-oxo-6,7-dihydro-11H-benzo[f]pyrido[1,2-d][1,4]oxazepine-10-carboxylic acid]
The EC50 of the first is 2.2-fold lower: 0.026 µM for the first, 0.057 µM for the second.

First: CCc1cc2c(cc1OCC(F)(F)F)OC[C@@H](C(C)C)n1cc(C(=O)O)c(=O)cc1-2 [Example 58, (R)-2-Ethyl-7-isopropyl-11-oxo-3-(2,2,2-trifluoroethoxy)-6,7-dihydro-11H-benzo[f]pyrido[1,2-d][1,4]oxazepine-10-carboxylic acid]
Second: Cc1cc2c(cc1OCC(F)(F)F)OC[C@@H](C(C)C)n1cc(C(=O)O)c(=O)cc1-2 [Example 59, (R)-7-Isopropyl-2-methyl-11-oxo-3-(2,2,2-trifluoroethoxy)-6,7-dihydro-11H-benzo[f]pyrido[1,2-d][1,4]oxazepine-10-carboxylic acid]
The EC50 of the first is 4.2-fold lower: 0.021 µM for the first, 0.089 µM for the second.

First: COCCCNc1cc2c(cc1Cl)-c1cc(=O)c(C(=O)O)cn1[C@H](C(C)C)CO2 [Example 61, (R)-2-Chloro-7-isopropyl-3-((3-methoxypropyl)amino)-11-oxo-6,7-dihydro-11H-benzo[f]pyrido[1,2-d][1,4]oxazepine-10-carboxylic acid]
Second: COCCNc1cc2c(cc1Cl)-c1cc(=O)c(C(=O)O)cn1[C@H](C(C)C)CO2 [Example 64, (R)-2-Chloro-7-isopropyl-3-((2-methoxyethyl)amino)-11-oxo-6,7-dihydro-11H-benzo[f]pyrido[1,2-d][1,4]oxazepine-10-carboxylic acid]
The EC50 of the first is 2.9-fold lower: 0.023 µM for the first, 0.066 µM for the second.

`CC(C)[C@@H]1COc2cc(N3CCOCC3)c(Cl)cc2-c2cc(=O)c(C(=O)O)cn21` [Example 62, (R)-2-Chloro-7-isopropyl-3-morpholino-11-oxo-6,7-dihydro-11H-benzo[f]pyrido[1,2-d][1,4]oxazepine-10-carboxylic acid] and `COCCN(C)c1cc2c(cc1Cl)-c1cc(=O)c(C(=O)O)cn1[C@H](C(C)C)CO2` [Example 65, (R)-2-Chloro-7-isopropyl-3-((2-methoxyethyl)(methyl)amino)-11-oxo-6,7-dihydro-11H-benzo[f]pyrido[1,2-d][1,4]oxazepine-10-carboxylic acid] are within 1.5-fold of each other in EC50: 0.21 µM for the first, 0.27 µM for the second.

Compared with `COCCCN(C)c1cc2c(cc1Cl)-c1cc(=O)c(C(=O)O)cn1[C@H](C(C)C)CO2` [Example 63, (R)-2-Chloro-7-isopropyl-3-((3-methoxypropyl)(methyl)amino)-11-oxo-6,7-dihydro-11H-benzo[f]pyrido[1,2-d][1,4]oxazepine-10-carboxylic acid], `COCCCOc1cc2c(nc1Cl)-c1cc(=O)c(C(=O)O)cn1[C@H](C(C)C)CO2` [Example 68, (R)-2-Chloro-7-isopropyl-3-(3-methoxypropoxy)-11-oxo-6,7-dihydro-11H-dipyrido[1,2-d:2′,3′-f][1,4]oxazepine-10-carboxylic acid] is 1.8-fold lower in EC50: 0.03 µM for the first, 0.017 µM for the second.

First: COCCCOc1cc2c(nc1Cl)-c1cc(=O)c(C(=O)O)cn1[C@H](C(C)(C)C)CO2 [Example 66, (R)-7-(Tert-butyl)-2-chloro-3-(3-methoxypropoxy)-11-oxo-6,7-dihydro-11H-dipyrido[1,2-d:2′,3′-f][1,4]oxazepine-10-carboxylic acid]
Second: COCCCOc1cc2c(nc1C1CC1)-c1cc(=O)c(C(=O)O)cn1[C@H](C(C)(C)C)CO2 [Example 67, (R)-7-(Tert-butyl)-2-cyclopropyl-3-(3-methoxypropoxy)-11-oxo-6,7-dihydro-11H-dipyrido[1,2-d:2′,3′-f][1,4]oxazepine-10-carboxylic acid]
The EC50 of the first is 2.2-fold higher: 0.002 µM for the first, 0.0009 µM for the second. The second is the more potent here.

Compared with `COCCCOc1cc2c(nc1Cl)-c1cc(=O)c(C(=O)O)cn1C1(CCCCC1)CO2` [Example 69, 2′-Chloro-3′-(3-methoxypropoxy)-1′-oxo-6′H,11′H-spiro[cyclohexane-1,7′-dipyrido[1,2-d:2′,3′-f][1,4]oxazepine]-10′-carboxylic acid], `COCCCOc1cc2c(nc1Cl)-c1cc(=O)c(C(=O)O)cn1C1(CCCC1)CO2` [Example 70, 2′-Chloro-3′-(3-methoxypropoxy)-11′-oxo-6′H,11′H-spiro[cyclopentane-1,7′-dipyrido[1,2-d:2′,3′-f][1,4]oxazepine]-10′-carboxylic acid] is 2-fold higher in EC50: 0.021 µM for the first, 0.041 µM for the second. The first is the more potent here.

Compared with `COCCCOc1cc2c(nc1Cl)-c1cc(=O)c(C(=O)O)cn1C1(COC1)CO2` [Example 71, 2-Chloro-3-(3-methoxypropoxy)-1-oxo-6H,11H-spiro[dipyrido[1,2-d:2′,3′-f][1,4]oxazepine-7,3′-oxetane]-10-carboxylic acid], `COCCCOc1cc2c(nc1Cl)-c1cc(=O)c(C(=O)O)cn1C1(CO2)CC(C)C1` (stereo not drawn) [Example 73, 2′-Chloro-3′-(3-methoxypropoxy)-3-methyl-11′-oxo-6′H,11′H-spiro[cyclobutane-1,7′-dipyrido[1,2-d:2′,3′-f][1,4]oxazepine]-10′-carboxylic acid] is 120-fold lower in EC50: 30 µM for the first, 0.26 µM for the second. The second is the more potent here.

Compared with `COCCCOc1cc2c(nc1Cl)-c1cc(=O)c(C(=O)O)cn1C1(CO2)CC(C)(C)C1` [Example 72, 2′-Chloro-3′-(3-methoxypropoxy)-3,3-dimethyl-11′-oxo-6′H,11′H-spiro[cyclobutane-1,7′-dipyrido[1,2-d:2′,3′-f][1,4]oxazepine]-10′-carboxylic acid], `COCCCOc1cc2c(nc1Cl)-c1cc(=O)c(C(=O)O)cn1C1(CCSCC1)CO2` [Example 74, 2-Chloro-3-(3-methoxypropoxy)-11-oxo-2′,3′,5′,6′-tetrahydro-6H,11H-spiro[dipyrido[1,2-d:2′,3′-f][1,4]oxazepine-7,4′-thiopyran]-10-carboxylic acid] is 28-fold higher in EC50: 0.18 µM for the first, 5 µM for the second. The first is the more potent here.

First: COc1cc2c(nc1Cl)-c1cc(=O)c(C(=O)O)cn1[C@H](C(C)C)CO2 [Example 75, (R)-2-Chloro-7-isopropyl-3-methoxy-11-oxo-6,7-dihydro-11H-dipyrido[1,2-d:2′,3′-f][1,4]oxazepine-10-carboxylic acid]
Second: CC(C)[C@@H]1COc2cc(O)c(Cl)nc2-c2cc(=O)c(C(=O)O)cn21 [Example 78, (R)-2-Chloro-3-hydroxy-7-isopropyl-11-oxo-6,7-dihydro-11H-dipyrido[1,2-d:2′,3′-f][1,4]oxazepine-10-carboxylic acid]
The EC50 of the first is 190-fold lower: 0.026 µM for the first, 5 µM for the second. The first is the more potent here.

`CC(C)COc1cc2c(nc1C1CC1)-c1cc(=O)c(C(=O)O)cn1[C@H](C(C)C)CO2` [Example 76, (R)-2-Cyclopropyl-3-isobutoxy-7-isopropyl-11-oxo-6,7-dihydro-11H-dipyrido[1,2-d:2′,3′-f][1,4]oxazepine-10-carboxylic acid] and `CC(C)COc1cc2c(nc1Cl)-c1cc(=O)c(C(=O)O)cn1[C@H](C(C)C)CO2` [Example 79, (R)-2-Chloro-3-isobutoxy-7-isopropyl-11-oxo-6,7-dihydro-11H-dipyrido[1,2-d:2′,3′-f][1,4]oxazepine-10-carboxylic acid] are within 1.5-fold of each other in EC50: 0.86 µM for the first, 0.79 µM for the second.

Going from `CC(C)[C@@H]1COc2cc(OCc3ccccc3)c(Cl)nc2-c2cc(=O)c(C(=O)O)cn21` [Example 77, (R)-3-(Benzyloxy)-2-chloro-7-isopropyl-11-oxo-6,7-dihydro-11H-dipyrido[1,2-d:2′,3′-f][1,4]oxazepine-10-carboxylic acid] to `COCCCOc1cc2c(nc1Cl)-c1cc(=O)c(C(=O)O)cn1[C@H](CCO)CO2` [Example 80, (R)-2-Chloro-7-(2-hydroxyethyl)-3-(3-methoxypropoxy)-11-oxo-6,7-dihydro-11H-dipyrido[1,2-d:2′,3′-f][1,4]oxazepine-10-carboxylic acid], the EC50 falls from 3.2 µM to 0.26 µM (12-fold).

Compared with `COCCCOc1cc2c(nc1Cl)-c1cc(=O)c(C(=O)O)cn1C1C(CCC1(C)C)O2` (stereo not drawn) [Example 81, 6-Chloro-7-(3-methoxypropoxy)-12,12-dimethyl-3-oxo-9a,11,12,12a-tetrahydro-3H,10H-cyclopenta[b]dipyrido[1,2-d:2′,3′-f][1,4]oxazepine-2-carboxylic acid], `COc1cc2c(cn1)-c1cc(=O)c(C(=O)O)cn1C(C(C)C)C2` (stereo not drawn) [Example 86, 6-isopropyl-3-methoxy-10-oxo-5,10-dihydro-6H-pyrido[2,1-a][2,7]naphthyridine-9-carboxylic acid] is 91-fold higher in EC50: 0.011 µM for the first, 1 µM for the second. The first is the more potent here.

Compared with `CC(C)C1Cc2sccc2-c2cc(=O)c(C(=O)O)cn21` (stereo not drawn) [Example 84, 5-Isopropyl-9-oxo-4,9-dihydro-5H-thieno[3,2-a]quinolizine-8-carboxylic acid], `CC(C)C1Cc2sc(Cl)cc2-c2cc(=O)c(C(=O)O)cn21` (stereo not drawn) [Example 85, 2-Chloro-5-isopropyl-9-oxo-4,9-dihydro-5H-thieno[3,2-a]quinolizine-8-carboxylic acid] is 5-fold higher in EC50: 3.2 µM for the first, 16 µM for the second. The first is the more potent here.
